Here are results for four compounds from US5773459A, “Urea- and thiourea-type compounds” (Sugen, Inc., priority 1995, dated 1998).

Like-named read-outs stand apart in the source and are kept apart here. Some results are limits rather than exact numbers.

One assay concerns the target T1, IGF-1R (Homo sapiens, UniProt P08069).
T1 construct: expressed in transfected cells; host or cells: 3T3/IGF-1R
Kind of assay: Cellular IGF-1 Receptor ELISA. The format is cell-based. Here is the method:
Cellular IGF-1 Receptor ELISA (Version I)
(1). The cell line used in this assay is 3T3/IGF-1R, a cell line which overexpresses IGF-1 Receptor.
(2). 3T3/IGF-1 R is grown in an incubator with 5% CO2 at 37° C. The growth media is DMEM+10% FBS (heat inactivated)+2 mM L-Glutamine.
(3). For ELISA plate coating, the anti-IGF-1 R antibody named 17-69 is used. Antibodies are purified by the Enzymology Lab, SUGEN, Inc.
(10). Insulin-like growth factor-1 from Promega (Cat# G5111).
(2). […] Incubate for 1 day then replace medium to serum-free medium (90/ul) and incubate in 5% CO2 and 37° C. overnight.
2. ELISA Plate Coating and Blocking
(2). Remove the coating solution, and replace with 100 ul Blocking Buffer, and shake for 30 minutes. Remove the blocking buffer and wash the plate just before adding lysate.
(1). The drugs are tested in serum-free condition.
(2). Dilute drug stock (in 100% DMSO) 1:10 with DMEM in 96-well poly-propylene plate, and transfer 10 ul/well of this solution to the cells to achieve final drug dilution 1:100, and final DMSO concentration of 1.0%. Incubate the cells in 5% CO2 at 37° C for 2 hours.
(3). Prepare fresh cell lysis buffer (HNTG HNTG 2 ml EDTA 0.1 ml Na3VO4 0.1 ml Na4P207 0.1 ml H20 7.3 ml HNTG* 10 ml.
(4). After drug incubation for two hours, transfer 10 ul/well of 200 nM IGF-1 Ligand in PBS to the cells (Final Conc=20 nM), and incubate at 5% CO2 at 37° C. for 10 minutes.
(5). Remove media and add 100 ul/well HNTG* and shake for 10 minutes. Look at cells under microscope to see if they are adequately lysed.
(6). Use a 12-channel pipette to scrape the cells from the plate, and homogenize the lysate by repeat aspiration and dispense. Transfer all the lysate to the antibody coated ELISA plate [V.2.(2)], and shake for 1 hour.
(7). Remove the lysate, wash the plate, transfer anti-pTyr (1:3,000 with TBST) 100 ul/well, and shake for 30 minutes.
(7). Remove anti-pTyr, wash the plate, transfer detection antibody (1:3,000 with TBST) 100 ul/well, and shake for 30 minutes.
(8). Remove detection antibody, wash the plate, and transfer fresh ABTS/H2O2 (1.2 ul H2O2 to 10 ml ABTS) 100 ul/well to the plate to start color development.
(9). Measure OD (410 nm) in Dynatec MR5000, which is connected to Ingres.
(ELISA stands for enzyme-linked immunosorbent assay.)

For assay [1], the system named is MCF7 human breast carcinoma cells. Kind of assay: MCF-7 SRB Growth Assay. The settings on record: read-out: GROWTH DATA: MCF7 10% FBS. Type of assay: cell-based. The source says:
The following examples illustrate the ability of the exemplary compounds to inhibit receptor tyrosine kinases, such as HER2 and/or EGFR. The following target cells were used for cellular kinase assays: NIH3T3 clone C7 (Honegger et al., supra) engineered to over-express human EGF receptor; NIH3T3 cells engineered to over-express a chimeric receptor containing the EGFR extracellular domain and the HER2 intracellular kinase domain; the human mammary carcinoma line BT474 (ATCC HTB2) expressing HER2; and the human glioblastoma line U1242 that expresses PDGFR-beta. Growth assays were carried out using human mammary epithelial SKBR3 (ATCC HTB30) cells (SKBR3 cells over-express HER2), SKOV3 (ATCC HTB77) human ovarian cancer cell line (SKOV3 cells also over-express HER2), A431 cells (A431 cells over-express EGFR) MCF7 human breast carcinoma cells, MCF7 cells overexpressing the HER2 kinase (MCF7-HER2), NIH3T3 cells, and NIH3T3 cells overexpressing the HER2 kinase (3T3-HER2.
MCF-7 cells are seeded at 2000 cells/ well in a 96-well flat bottom plate in normal growth media, which was 10% FBS/RPMI supplemented with 2 mM Glutamine. The plate of cells is incubated for about 24 hours at 37° C. after which it receives an equal volume of compound dilution per well making the total volume per well 200 μl. The compound is prepared at 2 times the desired highest final concentration and serially diluted in the normal growth media in a 96-well round bottom plate and then transferred to plate of cells. DMSO serves as the vector control up to 0.2% as final concentration. The cells are then incubated at 37° C. in a humidified 5% CO2 incubator.
Four days following dosing of compound, the media is 15 discarded and 200 μl/well of ice-cold 10% TCA (Trichloroacetic Acid) is added to fix cells. After 60 minutes at 4° C., the TCA is discarded and the plate is rinsed 5 times with water. The plate is then air-dried and 100 μl/well of 0.4% SRB (Sulforhodamine B from Sigma) 20 in 1% Acetic Acid is added to stain cells for 10 minutes at room temperature. The SRB is discarded and the plate is rinsed 5 times with 1% Acetic Acid. After the plate is completely dried, 100 μl/well of 10 mM Tris-base is added to solubilize the dye. After 5 to 10 minutes, the plate is read on a Dynatech ELISA Plate Reader at dual wavelengths at 570 nm and 630 nm.

Where [2] appears, read: 3T3/IGF-1R cells, IGF-1 stimulated, read-out: ELISA DATA: IGF-1R.

T1 sequence (P08069 31-1367): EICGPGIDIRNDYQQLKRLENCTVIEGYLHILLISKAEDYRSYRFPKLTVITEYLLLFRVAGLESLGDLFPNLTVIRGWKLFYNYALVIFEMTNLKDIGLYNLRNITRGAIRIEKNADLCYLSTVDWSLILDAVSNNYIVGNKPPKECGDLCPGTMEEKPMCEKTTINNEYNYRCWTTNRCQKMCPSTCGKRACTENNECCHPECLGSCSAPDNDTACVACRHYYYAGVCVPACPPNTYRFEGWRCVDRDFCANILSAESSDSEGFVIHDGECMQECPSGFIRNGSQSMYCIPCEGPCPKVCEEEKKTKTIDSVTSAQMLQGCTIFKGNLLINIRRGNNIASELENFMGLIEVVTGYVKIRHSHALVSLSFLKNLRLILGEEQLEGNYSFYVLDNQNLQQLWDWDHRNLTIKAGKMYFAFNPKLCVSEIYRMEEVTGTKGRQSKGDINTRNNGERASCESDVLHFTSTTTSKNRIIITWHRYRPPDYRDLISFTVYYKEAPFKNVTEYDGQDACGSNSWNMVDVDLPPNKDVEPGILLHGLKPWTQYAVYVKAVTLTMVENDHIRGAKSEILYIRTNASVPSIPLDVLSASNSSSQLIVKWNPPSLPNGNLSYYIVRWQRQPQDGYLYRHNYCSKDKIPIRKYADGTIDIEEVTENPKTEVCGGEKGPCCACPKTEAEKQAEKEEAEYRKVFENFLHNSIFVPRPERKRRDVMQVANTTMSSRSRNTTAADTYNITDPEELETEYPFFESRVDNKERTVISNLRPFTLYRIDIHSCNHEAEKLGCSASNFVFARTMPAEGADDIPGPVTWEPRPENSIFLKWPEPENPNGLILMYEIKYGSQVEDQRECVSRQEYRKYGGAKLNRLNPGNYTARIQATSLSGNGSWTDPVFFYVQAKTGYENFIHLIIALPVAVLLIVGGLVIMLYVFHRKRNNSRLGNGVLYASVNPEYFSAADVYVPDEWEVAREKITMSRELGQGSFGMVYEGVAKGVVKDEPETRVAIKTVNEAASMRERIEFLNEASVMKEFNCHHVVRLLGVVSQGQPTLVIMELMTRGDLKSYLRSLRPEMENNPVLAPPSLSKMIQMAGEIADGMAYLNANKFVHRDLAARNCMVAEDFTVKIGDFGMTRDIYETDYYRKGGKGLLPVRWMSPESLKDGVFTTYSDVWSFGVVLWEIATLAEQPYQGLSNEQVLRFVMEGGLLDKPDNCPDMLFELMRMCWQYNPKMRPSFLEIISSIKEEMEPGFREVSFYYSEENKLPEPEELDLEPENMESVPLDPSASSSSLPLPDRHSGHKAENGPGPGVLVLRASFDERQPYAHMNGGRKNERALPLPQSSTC

Take `CC(C)S(=O)(=O)c1csc(NC(=O)Nc2cc(C(F)(F)F)cc(C(F)(F)F)c2)c1Cl` [Example Z2, N-[3-Chloro-4-(isopropylsulfonyl)thien-2-yl]-N'-(3,5-di-trifluoromethylphenyl)urea]: the IC50 on IGF-1R (setting [2]) was above 100 µM; in assay [1] it was 1 µM.
Take `O=C(Nc1ccc(SC(F)(F)F)cc1)Nc1ccc(Oc2ccc(Cl)cc2Cl)nc1` [Example Z3]: the IC50 came to 16.5 µM on IGF-1R and 2 µM in assay [1].
As for `N#Cc1ccc(NC(=S)Nc2ccc(S(=O)(=O)N3CCCCC3)cc2)cc1` [Example Z4, N-(4-Cyanophenyl)-N'-[4-[(piperid-1-yl)sulfonyl]phenyl]thiourea], the IC50 was above 100 µM on IGF-1R (setting [2]) and 3 µM in assay [1].
With `CC(C)S(=O)(=O)c1csc(NC(=O)Nc2ccc(C(C)(C)C)cc2)c1Cl` [Example Z1, N-[3-Chloro-4-(isopropylsulfonyl)thien-2-yl]-N'-(4-t-butylphenyl)urea], the IC50 on IGF-1R (setting [2]) is above 100 µM; in assay [1] it was 5 µM.
